The values below come from publication PMC8450872 (Human Reproduction (Oxford, England), 2021).

The target in this assay is CatSper (Homo sapiens, UniProt Q7RTX7+Q86XQ3+Q8NEC5+Q96P56). Briefly: whole-cell patch clamp of human sperm. It is filed as cell-based.
CatSper, sequence (Q96P56 whole entry): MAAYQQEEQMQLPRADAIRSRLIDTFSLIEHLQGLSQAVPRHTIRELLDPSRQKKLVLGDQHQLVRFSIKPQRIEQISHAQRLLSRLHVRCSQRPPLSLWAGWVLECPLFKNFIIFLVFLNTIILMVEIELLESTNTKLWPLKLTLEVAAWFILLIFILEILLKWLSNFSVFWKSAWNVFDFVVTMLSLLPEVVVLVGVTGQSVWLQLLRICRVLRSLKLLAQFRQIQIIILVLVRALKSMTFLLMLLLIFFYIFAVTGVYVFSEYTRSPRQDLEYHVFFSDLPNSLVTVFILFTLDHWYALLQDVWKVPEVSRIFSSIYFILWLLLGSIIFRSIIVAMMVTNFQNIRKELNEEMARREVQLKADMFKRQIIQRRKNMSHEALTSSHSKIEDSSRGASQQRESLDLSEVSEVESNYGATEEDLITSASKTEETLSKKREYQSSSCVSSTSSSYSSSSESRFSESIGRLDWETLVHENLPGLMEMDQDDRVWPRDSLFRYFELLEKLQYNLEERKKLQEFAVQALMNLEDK
CatSper, sequence (Q8NEC5 whole entry): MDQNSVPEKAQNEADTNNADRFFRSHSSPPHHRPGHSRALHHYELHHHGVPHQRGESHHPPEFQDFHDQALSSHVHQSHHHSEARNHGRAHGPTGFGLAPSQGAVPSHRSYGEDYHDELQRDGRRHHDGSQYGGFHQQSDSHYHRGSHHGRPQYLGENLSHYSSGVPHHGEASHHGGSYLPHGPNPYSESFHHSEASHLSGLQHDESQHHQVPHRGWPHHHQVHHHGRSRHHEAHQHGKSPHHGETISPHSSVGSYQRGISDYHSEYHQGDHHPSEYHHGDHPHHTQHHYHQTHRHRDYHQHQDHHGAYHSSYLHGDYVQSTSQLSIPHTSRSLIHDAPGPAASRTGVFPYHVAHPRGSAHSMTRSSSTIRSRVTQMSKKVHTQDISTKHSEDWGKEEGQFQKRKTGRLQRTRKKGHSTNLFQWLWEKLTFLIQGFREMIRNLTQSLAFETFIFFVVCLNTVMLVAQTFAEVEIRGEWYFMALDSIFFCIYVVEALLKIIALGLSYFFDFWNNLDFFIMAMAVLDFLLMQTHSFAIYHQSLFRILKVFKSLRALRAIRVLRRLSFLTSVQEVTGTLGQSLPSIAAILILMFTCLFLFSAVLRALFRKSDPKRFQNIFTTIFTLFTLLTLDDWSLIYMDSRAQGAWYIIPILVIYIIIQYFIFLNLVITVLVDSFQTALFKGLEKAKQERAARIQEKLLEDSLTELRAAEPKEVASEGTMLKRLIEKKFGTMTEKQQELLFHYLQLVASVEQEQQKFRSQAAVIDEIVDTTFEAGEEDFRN
CatSper, sequence (Q86XQ3 whole entry): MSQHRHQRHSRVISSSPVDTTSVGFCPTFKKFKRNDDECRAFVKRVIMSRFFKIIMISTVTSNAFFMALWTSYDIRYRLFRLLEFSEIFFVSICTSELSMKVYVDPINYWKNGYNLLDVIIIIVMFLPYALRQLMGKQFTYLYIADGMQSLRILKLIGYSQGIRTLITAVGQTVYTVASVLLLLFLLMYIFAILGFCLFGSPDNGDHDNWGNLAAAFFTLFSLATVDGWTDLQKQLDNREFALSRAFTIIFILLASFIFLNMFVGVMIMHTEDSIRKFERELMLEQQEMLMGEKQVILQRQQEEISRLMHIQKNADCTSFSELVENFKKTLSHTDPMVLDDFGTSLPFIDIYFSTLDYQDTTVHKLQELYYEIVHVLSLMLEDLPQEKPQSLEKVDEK
CatSper, sequence (Q7RTX7 whole entry): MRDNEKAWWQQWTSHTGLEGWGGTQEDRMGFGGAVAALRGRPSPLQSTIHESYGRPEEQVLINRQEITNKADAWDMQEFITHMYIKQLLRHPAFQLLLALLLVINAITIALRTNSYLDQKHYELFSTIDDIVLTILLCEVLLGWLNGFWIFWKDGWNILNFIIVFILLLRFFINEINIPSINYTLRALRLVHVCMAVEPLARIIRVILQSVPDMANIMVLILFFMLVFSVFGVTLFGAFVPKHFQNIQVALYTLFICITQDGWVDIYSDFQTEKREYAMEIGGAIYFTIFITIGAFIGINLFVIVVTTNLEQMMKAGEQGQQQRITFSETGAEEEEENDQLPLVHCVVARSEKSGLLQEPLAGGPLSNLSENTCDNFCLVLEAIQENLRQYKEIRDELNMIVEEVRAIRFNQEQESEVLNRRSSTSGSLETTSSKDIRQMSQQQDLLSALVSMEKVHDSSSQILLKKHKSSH

As usually defined, the IC50 is the midpoint of a concentration-inhibition curve. `CN[C@H]1CC[C@@H](c2ccc(Cl)c(Cl)c2)c2ccccc21` [Sertraline] showed an IC50 of 4.62 ± 1.18 µM.
